Test results reported in ChEMBL document CHEMBL1149603, “5-Arylidene-2,4-thiazolidinediones as inhibitors of protein tyrosine phosphatases” (Bioorg Med Chem, 2007).

Assays:
[1] = target: T1, Tyrosine-protein phosphatase non-receptor type 2 (Homo sapiens, UniProt P17706); test: Inhibition of human T cell protein-tyrosine phosphatase; assay type: cell-based
T1 sequence (P17706 whole entry): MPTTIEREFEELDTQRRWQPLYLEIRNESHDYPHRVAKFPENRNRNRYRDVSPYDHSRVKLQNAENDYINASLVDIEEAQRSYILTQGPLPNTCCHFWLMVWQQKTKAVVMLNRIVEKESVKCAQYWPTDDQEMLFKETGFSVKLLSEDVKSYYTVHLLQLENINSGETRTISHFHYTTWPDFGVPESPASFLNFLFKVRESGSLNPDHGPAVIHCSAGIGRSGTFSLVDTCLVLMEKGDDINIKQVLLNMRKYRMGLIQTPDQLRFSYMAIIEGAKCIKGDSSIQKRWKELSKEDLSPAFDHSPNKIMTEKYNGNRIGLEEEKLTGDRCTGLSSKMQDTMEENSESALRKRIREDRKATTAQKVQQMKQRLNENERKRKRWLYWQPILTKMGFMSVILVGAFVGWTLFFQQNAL

[2] = target: T2, Low molecular weight phosphotyrosine protein phosphatase (Saccharomyces cerevisiae S288c, UniProt P40347); test: Inhibition of Saccharomyces cerevisiae low molecular weight Protein-tyrosine phosphatase Ltp1
T2 sequence (P40347 whole entry): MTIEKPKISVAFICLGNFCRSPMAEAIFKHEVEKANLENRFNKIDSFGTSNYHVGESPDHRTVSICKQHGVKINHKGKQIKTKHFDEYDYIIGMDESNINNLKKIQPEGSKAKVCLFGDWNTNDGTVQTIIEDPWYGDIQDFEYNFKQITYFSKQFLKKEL

[3] = target: T3, Low molecular weight phosphotyrosine protein phosphatase (Homo sapiens, UniProt P24666); test: Inhibition of human low molecular weight Protein-tyrosine phosphatase IF2
T3 sequence (P24666 whole entry): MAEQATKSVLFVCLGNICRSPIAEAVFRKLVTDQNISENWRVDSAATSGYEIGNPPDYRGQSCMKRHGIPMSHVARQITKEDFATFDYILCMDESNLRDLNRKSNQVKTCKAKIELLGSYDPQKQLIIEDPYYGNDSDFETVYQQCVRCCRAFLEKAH

[4] = target: Receptor-type tyrosine-protein phosphatase beta (Homo sapiens, UniProt P23467); test: Inhibition of human protein-tyrosine phosphatase beta
[5] = target: Receptor-type tyrosine-protein phosphatase F (Homo sapiens, UniProt P10586); test: Inhibition of human leukocyte antigen related protein-tyrosine phosphatase
[6] = Inhibition of Yersinia Tyrosine-protein phosphatase yopH; set-up: species or system Yersinia sp.
[7] = target: T3, Low molecular weight phosphotyrosine protein phosphatase; test: Inhibition of human low molecular weight Protein-tyrosine phosphatase IF1
[8] = target: T4, Tyrosine-protein phosphatase non-receptor type 1 (Homo sapiens, UniProt P18031); test: Inhibition of human protein-tyrosine phosphatase 1B
T4 sequence (P18031 whole entry): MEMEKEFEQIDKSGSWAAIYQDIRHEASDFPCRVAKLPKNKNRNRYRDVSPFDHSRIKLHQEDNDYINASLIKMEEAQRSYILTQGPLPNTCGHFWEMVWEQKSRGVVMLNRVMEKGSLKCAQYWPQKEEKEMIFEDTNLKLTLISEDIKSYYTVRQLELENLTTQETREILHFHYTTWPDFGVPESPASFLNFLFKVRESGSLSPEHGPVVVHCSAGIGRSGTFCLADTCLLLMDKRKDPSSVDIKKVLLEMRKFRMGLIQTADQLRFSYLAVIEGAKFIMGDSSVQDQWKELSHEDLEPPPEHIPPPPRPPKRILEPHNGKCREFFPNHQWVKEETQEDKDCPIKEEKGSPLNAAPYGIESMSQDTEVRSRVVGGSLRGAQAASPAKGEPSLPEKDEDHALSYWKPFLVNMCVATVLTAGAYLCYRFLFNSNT

Sequence of Receptor-type tyrosine-protein phosphatase beta (P23467 whole entry): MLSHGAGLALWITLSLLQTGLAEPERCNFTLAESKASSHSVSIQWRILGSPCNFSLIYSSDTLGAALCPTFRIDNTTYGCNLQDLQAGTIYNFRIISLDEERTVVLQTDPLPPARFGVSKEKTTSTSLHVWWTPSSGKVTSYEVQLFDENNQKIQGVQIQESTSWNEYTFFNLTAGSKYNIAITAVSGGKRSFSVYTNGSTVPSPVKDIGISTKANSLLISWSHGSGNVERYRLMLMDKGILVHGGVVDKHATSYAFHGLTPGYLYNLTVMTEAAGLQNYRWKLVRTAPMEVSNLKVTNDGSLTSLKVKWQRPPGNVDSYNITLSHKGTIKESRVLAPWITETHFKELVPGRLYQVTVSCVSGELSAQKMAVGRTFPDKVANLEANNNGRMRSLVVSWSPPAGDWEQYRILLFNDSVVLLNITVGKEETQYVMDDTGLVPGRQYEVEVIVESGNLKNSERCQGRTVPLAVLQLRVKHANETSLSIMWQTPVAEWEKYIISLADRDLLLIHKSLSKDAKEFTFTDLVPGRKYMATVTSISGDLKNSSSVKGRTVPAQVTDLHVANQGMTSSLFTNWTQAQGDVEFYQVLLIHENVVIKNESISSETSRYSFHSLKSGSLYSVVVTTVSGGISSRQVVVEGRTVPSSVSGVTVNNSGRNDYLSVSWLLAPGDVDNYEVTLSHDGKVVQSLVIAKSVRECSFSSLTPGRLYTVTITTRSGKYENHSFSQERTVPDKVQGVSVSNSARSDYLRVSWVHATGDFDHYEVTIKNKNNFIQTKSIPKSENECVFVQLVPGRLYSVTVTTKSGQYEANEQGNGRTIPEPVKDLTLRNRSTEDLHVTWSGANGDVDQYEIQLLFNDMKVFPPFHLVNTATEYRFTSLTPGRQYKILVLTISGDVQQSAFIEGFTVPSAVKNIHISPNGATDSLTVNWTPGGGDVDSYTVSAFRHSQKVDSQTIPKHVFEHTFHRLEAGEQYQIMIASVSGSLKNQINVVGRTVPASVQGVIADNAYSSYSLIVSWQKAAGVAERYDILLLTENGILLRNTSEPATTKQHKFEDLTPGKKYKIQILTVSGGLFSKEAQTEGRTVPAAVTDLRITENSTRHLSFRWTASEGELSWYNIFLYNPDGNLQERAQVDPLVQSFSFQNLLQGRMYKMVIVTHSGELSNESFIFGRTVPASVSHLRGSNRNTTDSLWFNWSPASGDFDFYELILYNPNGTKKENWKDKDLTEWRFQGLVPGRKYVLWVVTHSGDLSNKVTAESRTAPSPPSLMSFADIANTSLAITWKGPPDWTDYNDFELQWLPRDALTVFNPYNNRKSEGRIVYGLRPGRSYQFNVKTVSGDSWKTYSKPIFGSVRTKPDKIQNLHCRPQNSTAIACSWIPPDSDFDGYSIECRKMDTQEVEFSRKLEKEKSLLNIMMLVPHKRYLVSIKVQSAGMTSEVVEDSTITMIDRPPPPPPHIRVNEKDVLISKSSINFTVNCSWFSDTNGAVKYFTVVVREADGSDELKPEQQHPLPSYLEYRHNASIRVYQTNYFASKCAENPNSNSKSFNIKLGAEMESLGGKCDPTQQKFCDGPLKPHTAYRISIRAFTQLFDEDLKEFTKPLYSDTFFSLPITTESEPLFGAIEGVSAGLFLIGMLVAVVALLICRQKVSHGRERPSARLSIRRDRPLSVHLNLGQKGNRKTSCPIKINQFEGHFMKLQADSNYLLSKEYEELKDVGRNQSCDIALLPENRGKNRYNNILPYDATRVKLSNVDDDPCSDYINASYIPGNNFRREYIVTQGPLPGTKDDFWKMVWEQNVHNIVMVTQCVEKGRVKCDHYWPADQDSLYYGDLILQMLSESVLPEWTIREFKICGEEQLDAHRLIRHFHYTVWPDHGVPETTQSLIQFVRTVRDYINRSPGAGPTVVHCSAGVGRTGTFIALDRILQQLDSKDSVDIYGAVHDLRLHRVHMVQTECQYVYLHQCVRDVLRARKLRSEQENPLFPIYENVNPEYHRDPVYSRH
Sequence of Receptor-type tyrosine-protein phosphatase F (P10586 whole entry): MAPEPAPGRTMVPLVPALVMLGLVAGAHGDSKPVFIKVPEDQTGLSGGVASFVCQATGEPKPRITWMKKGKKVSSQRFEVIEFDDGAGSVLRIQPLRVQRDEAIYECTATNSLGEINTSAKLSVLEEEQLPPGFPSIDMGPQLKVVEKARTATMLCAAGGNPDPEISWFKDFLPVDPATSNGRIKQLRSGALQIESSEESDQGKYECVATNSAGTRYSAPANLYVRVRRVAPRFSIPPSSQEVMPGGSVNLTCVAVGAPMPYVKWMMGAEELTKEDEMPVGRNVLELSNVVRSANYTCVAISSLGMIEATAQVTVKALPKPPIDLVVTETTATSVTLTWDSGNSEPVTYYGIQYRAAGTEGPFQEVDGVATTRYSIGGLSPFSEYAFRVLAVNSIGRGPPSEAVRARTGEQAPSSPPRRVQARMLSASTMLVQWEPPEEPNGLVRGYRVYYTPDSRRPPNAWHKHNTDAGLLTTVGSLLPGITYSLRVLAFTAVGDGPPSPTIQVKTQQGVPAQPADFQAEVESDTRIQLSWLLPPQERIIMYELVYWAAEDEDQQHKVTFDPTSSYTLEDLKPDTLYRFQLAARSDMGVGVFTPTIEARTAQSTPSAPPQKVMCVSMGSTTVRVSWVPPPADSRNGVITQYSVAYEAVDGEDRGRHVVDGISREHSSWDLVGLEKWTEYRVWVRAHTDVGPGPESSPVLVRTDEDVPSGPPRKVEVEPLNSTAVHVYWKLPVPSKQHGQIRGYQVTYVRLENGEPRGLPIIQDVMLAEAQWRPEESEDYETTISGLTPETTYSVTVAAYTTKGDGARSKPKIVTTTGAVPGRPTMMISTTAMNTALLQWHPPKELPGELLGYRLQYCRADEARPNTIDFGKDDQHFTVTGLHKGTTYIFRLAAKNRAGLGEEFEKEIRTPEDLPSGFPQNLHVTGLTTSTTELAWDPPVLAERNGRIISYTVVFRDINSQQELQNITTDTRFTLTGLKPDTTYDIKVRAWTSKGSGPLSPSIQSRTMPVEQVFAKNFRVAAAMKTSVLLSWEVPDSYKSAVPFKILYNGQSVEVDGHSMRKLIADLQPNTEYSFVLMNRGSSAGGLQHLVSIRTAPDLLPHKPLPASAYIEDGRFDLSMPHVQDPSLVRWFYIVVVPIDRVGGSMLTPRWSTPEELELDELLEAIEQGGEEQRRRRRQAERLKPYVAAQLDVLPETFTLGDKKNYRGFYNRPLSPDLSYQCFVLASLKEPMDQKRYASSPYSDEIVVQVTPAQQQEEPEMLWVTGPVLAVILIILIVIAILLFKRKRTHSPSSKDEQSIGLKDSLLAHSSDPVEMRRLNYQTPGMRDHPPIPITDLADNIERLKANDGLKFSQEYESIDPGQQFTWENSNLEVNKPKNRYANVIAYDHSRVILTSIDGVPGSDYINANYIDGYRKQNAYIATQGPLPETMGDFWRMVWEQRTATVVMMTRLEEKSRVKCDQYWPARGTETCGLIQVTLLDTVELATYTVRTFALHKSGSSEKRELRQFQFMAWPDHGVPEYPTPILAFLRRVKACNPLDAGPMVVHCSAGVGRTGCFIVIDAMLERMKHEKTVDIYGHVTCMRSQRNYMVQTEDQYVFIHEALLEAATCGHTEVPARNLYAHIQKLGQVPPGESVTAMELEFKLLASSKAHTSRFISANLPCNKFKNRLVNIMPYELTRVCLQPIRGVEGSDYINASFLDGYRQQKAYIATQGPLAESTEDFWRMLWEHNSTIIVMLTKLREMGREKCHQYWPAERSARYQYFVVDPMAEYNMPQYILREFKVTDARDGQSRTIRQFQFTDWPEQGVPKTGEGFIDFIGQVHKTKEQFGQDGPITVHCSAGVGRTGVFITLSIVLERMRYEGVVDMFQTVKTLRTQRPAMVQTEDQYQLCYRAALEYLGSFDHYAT

| Structure (SMILES) | IC50 [1] [µM] | IC50 [2] [µM] | IC50 [3] [µM] | IC50 [4] [µM] | IC50 [5] [µM] | IC50 [6] [µM] | IC50 [7] [µM] | IC50 [8] [µM] |
| --- | --- | --- | --- | --- | --- | --- | --- | --- |
| O=C(O)c1ccc(CN2C(=O)S/C(=C\c3ccc(OCc4ccccc4)cc3)C2=O)cc1 | 1.3 | 15 | 5.6 | 0.4 | 27 | 0.3 | 2.5 | 1.6 |
| O=C(O)c1ccc(CN2C(=O)S/C(=C\c3ccc(O)cc3)C2=O)cc1 |  | 188 | 85 |  |  |  | 30 | 10 |
| O=C(O)c1ccc(CN2C(=O)S/C(=C\c3ccc4ccccc4c3)C2=O)cc1 |  | 149 | 92 |  |  |  | 12 | 6.5 |
| O=C(O)c1ccc(CN2C(=O)S/C(=C\c3ccc(Oc4ccccc4)cc3)C2=O)cc1 | 2.8 | 34 | 13 | 1.1 |  | 1 | 0.9 | 2.8 |
| O=C(O)COc1ccc(/C=C2\SC(=O)N(Cc3ccc(C(=O)O)cc3)C2=O)cc1 |  | > 450 | 1640 |  |  |  | 219 | 85 |
| O=C(O)c1ccc(CN2C(=O)S/C(=C\c3cccc(OCc4ccccc4)c3)C2=O)cc1 |  | 19.7 | 18.4 |  |  |  | 7.1 | 1.1 |
| O=C(O)c1ccc(CN2C(=O)S/C(=C\c3cccc4ccccc34)C2=O)cc1 |  | 99 | 138 |  |  |  | 122 | 5.5 |
| O=C(O)c1ccc(CN2C(=O)S/C(=C\c3cccc(O)c3)C2=O)cc1 |  | 1390 | 112 |  |  |  | 85.7 | 10.2 |
| O=C(O)c1ccc(CN2C(=O)S/C(=C\c3cccc(Oc4ccccc4)c3)C2=O)cc1 |  | 483 | 130 |  |  |  | 37 | 18 |
| COc1cc(/C=C2\SC(=O)N(Cc3ccc(C(=O)O)cc3)C2=O)ccc1O |  | 389 | 26.6 |  |  |  | 9.1 | 2.6 |
